Laboratory results from patent US6750228B1, “Aromatic sulfone hydroxamic acid metalloprotease inhibitor” (priority 1997, dated 2004).
Where a name gives a salt, the structure may show the parent alone. Read-outs that look alike come from different tables or passages of the source.

Columns and labels:
Test in all cases: biochemical
MMP-1 = biological target: T1, MMP-1 (Homo sapiens, UniProt P03956); details: read-out: MMP-1 IC50
T1 construct: made in house; host or cells: transfected HT-1080 cells (provided by Dr. Harold Welgus, Washington University)
T1 sequence (P03956 100-469): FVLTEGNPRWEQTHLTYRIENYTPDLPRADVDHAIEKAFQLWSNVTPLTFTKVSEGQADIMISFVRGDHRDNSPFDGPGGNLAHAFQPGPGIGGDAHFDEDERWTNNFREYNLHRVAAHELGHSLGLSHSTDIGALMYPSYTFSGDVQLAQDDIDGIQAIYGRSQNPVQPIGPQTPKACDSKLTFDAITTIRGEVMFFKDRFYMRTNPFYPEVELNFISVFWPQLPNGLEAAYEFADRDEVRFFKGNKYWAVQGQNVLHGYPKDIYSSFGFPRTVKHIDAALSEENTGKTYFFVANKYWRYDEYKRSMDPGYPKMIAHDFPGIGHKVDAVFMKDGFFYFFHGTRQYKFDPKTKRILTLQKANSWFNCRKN
Procedure, shortened: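 APMA- or trypsin-activated enzymes were preincubated with inhibitor for 5 min at room temperature, then the fluorogenic substrate MCA-Pro-Leu-Gly-Leu-Dpa-Ala-Arg-NH2 was added to a final 4 μM.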

MMP-2 = biological target: T2, MMP-2 (Homo sapiens, UniProt P08253)
T2 construct: made in house; provided by Dr. Gregory Goldberg, Washington University
T2 sequence (P08253 110-660): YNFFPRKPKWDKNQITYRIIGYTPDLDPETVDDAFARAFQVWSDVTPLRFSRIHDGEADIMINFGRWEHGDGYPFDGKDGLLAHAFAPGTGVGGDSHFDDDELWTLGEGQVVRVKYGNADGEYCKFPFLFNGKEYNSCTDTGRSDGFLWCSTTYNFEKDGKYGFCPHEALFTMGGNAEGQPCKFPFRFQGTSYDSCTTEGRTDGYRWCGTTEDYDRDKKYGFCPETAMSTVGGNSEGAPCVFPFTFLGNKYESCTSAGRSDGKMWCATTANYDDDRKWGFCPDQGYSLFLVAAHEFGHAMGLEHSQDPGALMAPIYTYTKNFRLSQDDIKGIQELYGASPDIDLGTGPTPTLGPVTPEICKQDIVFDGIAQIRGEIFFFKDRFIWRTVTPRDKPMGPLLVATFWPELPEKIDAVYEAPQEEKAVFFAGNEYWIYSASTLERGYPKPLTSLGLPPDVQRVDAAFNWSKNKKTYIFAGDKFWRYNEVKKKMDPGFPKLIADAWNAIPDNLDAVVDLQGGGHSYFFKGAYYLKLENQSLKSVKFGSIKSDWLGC
Procedure, shortened: (§1)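 Assay buffer 100 mM Tris-HCl, 100 mM NaCl, 10 mM CaCl2, pH 7.5. Activated MMP + inhibitor, 5 min RT; then methoxycoumarin peptide substrate, 4 μM final. Readout fluorescence; IC50 calculated.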

MMP-13 = biological target: T3, MMP-13 (Homo sapiens, UniProt P45452)
T3 construct: made in house; host or cells: baculovirus / insect cells
Procedure, shortened: as §1

[1] = recombinant human MMP-1, MCA peptide substrate 4 μM, pH 7.5, room temperature
[2] = recombinant human MMP-2, MCA peptide substrate 4 μM, pH 7.5, room temperature, read-out: MMP-2 IC50
[3] = recombinant human MMP-13, MCA peptide substrate 4 μM, pH 7.5, room temperature, read-out: MMP-13 IC50

Row | Compound | IC50 (MMP-1; [1]) [nM] | IC50 (MMP-2; [2]) [nM] | IC50 (MMP-13; [3]) [nM] | IC50 (MMP-13; MMP-13 IC50 (nM), recombinant human MMP-13, MCA peptide substrate 4 μM, pH 7.5, room temperature) [nM] | IC50 (MMP-1) [nM] | IC50 (MMP-2; read-out: MMP-2 IC50) [nM] | IC50 (MMP-13; read-out: MMP-13 IC50) [nM] | IC50 (MMP-2; MMP-2 IC50 (nM)) [nM]
1 | CCc1cccc(C(=O)C2CCN(c3ccc(S(=O)(=O)C4(C(=O)NO)CCOCC4)cc3)CC2)c1 [Example 732] | > 10000 | 590 | 3.1 | – | – | – | – | –
2 | O=C(NO)C1(S(=O)(=O)c2ccc(N3CCC(n4cnc5ccccc54)CC3)cc2)CCOCC1 [Example 475] | > 10000 | 500 | 27.1 | – | – | – | – | –
3 | O=C(NO)C1(S(=O)(=O)c2ccc(N3CCC(OCc4ccc(F)c(F)c4)CC3)cc2)CCOCC1 [Example 179] | > 10000 | 170 | 20.6 | – | – | – | – | –
4 | COCCN1CCC(C(=O)NO)(S(=O)(=O)c2ccc(N3CCC(C(=O)NC4Cc5ccccc5C4)CC3)cc2)CC1 [Example 242, 4-[[4-[4-[[(2,3-Dihydro-1H-inden-2-yl)amino]carbonyl]-1-piperidinyl]phenyl]sulfonyl]-N-hydroxy-1-(2-methoxyethyl)-4-piperidinecarboxamide, Monohydrochloride] | > 10000 | 1500 | 42.5 | – | – | – | – | –
5 | CCN(Cc1ccncc1)C(=O)C1CCN(c2ccc(S(=O)(=O)C3(C(=O)NO)CCOCC3)cc2)CC1 [Example 52] | > 10000 | 1900 | 90 | – | – | – | – | –
6 | O=C(NO)C1(S(=O)(=O)c2ccc(N3CCC(c4cccc5c4CCCC5)CC3)cc2)CCOCC1 [Example 473] | > 10000 | 3300 | 160 | – | – | – | – | –
7 | O=C(NO)C1(S(=O)(=O)c2ccc(Oc3ccc(OC(F)(F)F)cc3)cc2)CCN(Cc2cc(Cl)cc(Cl)c2)CC1 [Example 348] | > 10000 | 0.8 | 16.5 | – | – | – | – | –
8 | O=C(Nc1c(Cl)cccc1Cl)N1CCC(C(=O)NO)(S(=O)(=O)c2ccc(Oc3ccc(OC(F)(F)F)cc3)cc2)CC1 [Example 355] | 7000 | < 0.1 | 0.4 | – | – | – | – | –
9 | CCOc1cc(N2CCC(C(=O)NO)(S(=O)(=O)c3ccc(Oc4ccc(OC(F)(F)F)cc4)cc3)CC2)ncn1 [Example 411] | > 10000 | < 0.1 | 0.2 | – | – | – | – | –
10 | COCCN1CCC(C(=O)NO)(S(=O)(=O)c2ccc(N3CCC(C(=O)N4CCc5ccccc54)CC3)cc2)CC1 [Example 246, 4-[[4-[4-[(2,3-Dihydro-1H-indol-1-yl)carbonyl]-1-piperidinyl]-phenyl]sulfonyl]-N-hydroxy-1-(2-methoxyethyl)-4-piperidinecarboxamide, Monohydrate] | > 10000 | 2700 | 32.7 | – | – | – | – | –
11 | O=C(NO)C1(S(=O)(=O)c2ccc(N3CCC(c4ccccc4-c4ccc(F)cc4)CC3)cc2)CCOCC1 [Example 543] | > 10000 | 5400 | – | 33.7 | – | – | – | –
12 | O=C(NO)C1(S(=O)(=O)c2ccc(Oc3ccc(OC(F)(F)F)cc3)cc2)CCSCC1 [Example 147] | 7700 | 0.2 | 0.4 | – | – | – | – | –
13 | C=Cc1cccc(C(=O)C2CCN(c3ccc(S(=O)(=O)C4(C(=O)NO)CCOCC4)cc3)CC2)c1 [Example 786] | > 10000 | 700 | 3.7 | – | – | – | – | –
14 | O=C(NO)C1(S(=O)(=O)c2ccc(N3CCC(OCc4ccc(F)c(C(F)(F)F)c4)CC3)cc2)CCN(C2CC2)CC1 [Example 408] | > 10000 | 800 | 25.1 | – | – | – | – | –
15 | O=C(NO)C1(S(=O)(=O)c2ccc(N3CCCCC3CCOCc3ccccc3)cc2)CCOCC1 (stereo not drawn) [Example 509] | > 10000 | > 10000 | 520 | – | – | – | – | –
16 | O=C(NO)C1(S(=O)(=O)c2ccc(N3CCCN(c4ccc(OC(F)(F)F)cc4)CC3)cc2)CCOCC1 [Example 708] | > 10000 | 3000 | 114 | – | – | – | – | –
17 | O=C(C1CCN(c2ccc(S(=O)(=O)C3(C(=O)NO)CCOCC3)cc2)CC1)N1CCN(c2ncc(C(F)(F)F)cc2Cl)CC1 [Example 41] | – | – | – | – | > 10000 | 5400 | 70 | –

Row | Compound | IC50 (MMP-1; [1]) [nM] | IC50 (MMP-2; [2]) [nM] | IC50 (MMP-13; [3]) [nM] | IC50 (MMP-13; MMP-13 IC50 (nM), recombinant human MMP-13, MCA peptide substrate 4 μM, pH 7.5, room temperature) [nM] | IC50 (MMP-1) [nM] | IC50 (MMP-2; read-out: MMP-2 IC50) [nM] | IC50 (MMP-13; read-out: MMP-13 IC50) [nM] | IC50 (MMP-2; MMP-2 IC50 (nM)) [nM]
18 | CN1CCN(CCCCC(=O)N2CCC(C(=O)NO)(S(=O)(=O)c3ccc(Oc4ccc(C(F)(F)F)cc4)cc3)CC2)CC1 [Example 339] | > 10000 | 0.3 | 1 | – | – | – | – | –
19 | CC1CCCCN1c1ccc(S(=O)(=O)C2(C(=O)NO)CCOCC2)cc1 (stereo not drawn) [Example 486] | > 10000 | 4000 | 5400 | – | – | – | – | –
20 | Cc1ccc(C(=O)C2CCN(c3ccc(S(=O)(=O)C4(C(=O)NO)CCOCC4)cc3)CC2)cc1F [Example 736] | > 10000 | 145 | 0.9 | – | – | – | – | –
21 | CCOC(=O)C1CCN(CC(=O)N2CCC(C(=O)NO)(S(=O)(=O)c3ccc(N4CCC(C(=O)N5CC(C)CC(C)C5)CC4)cc3)CC2)CC1 (stereo not drawn) [Example 313] | > 10000 | > 10000 | 77 | – | – | – | – | –
22 | O=C(c1ccccc1)C1CCN(c2ccc(S(=O)(=O)C3(C(=O)NO)CCOCC3)cc2)CC1 [Example 656] | > 10000 | 120 | 3.1 | – | – | – | – | –
23 | COc1ccccc1NC(=O)N1CCC(C(=O)NO)(S(=O)(=O)c2ccc(Oc3ccc(OC(F)(F)F)cc3)cc2)CC1 [Example 357] | > 10000 | 0.1 | 0.3 | – | – | – | – | –
24 | O=C(NO)C1(S(=O)(=O)c2ccc(N3CC[C@@H](COCc4ccc(OC(F)(F)F)cc4)C3)cc2)CCOCC1 [Example 527] | > 10000 | 9000 | 6700 | – | – | – | – | –
25 | CCCCCOc1ccc(COC2CCN(c3ccc(S(=O)(=O)C4(C(=O)NO)CCOCC4)cc3)CC2)cc1 [Example 477] | > 10000 | 160 | 11.3 | – | – | – | – | –
26 | O=C(Nc1cccc(C(F)(F)F)c1)OC1CCN(c2ccc(S(=O)(=O)C3(C(=O)NO)CCOCC3)cc2)CC1 [Example 188, N-Hydroxy-4[[[4-[(3-trifluoromethyl)phenylcarbamoxy]piperidyl]phenyl]sulfonyl]-1-tetrahydropyrancarboxamide] | > 10000 | 235 | 7 | – | – | – | – | –
27 | O=C(C1CCN(c2ccc(S(=O)(=O)C3(C(=O)NO)CCOCC3)cc2)CC1)N1CCN(c2ccc(F)cc2)CC1 [Example 25] | – | – | – | – | > 10000 | – | 6 | 1600
28 | O=C(CNCc1ccccn1)N1CCC(C(=O)NO)(S(=O)(=O)c2ccc(Oc3ccc(C(F)(F)F)cc3)cc2)CC1 [Example 320] | > 10000 | 4 | 12.1 | – | – | – | – | –
29 | O=C(NO)C1(S(=O)(=O)c2ccc(OC3CN(C(c4ccccc4)c4ccccc4)C3)cc2)CCOCC1 [Example 794] | > 10000 | 2900 | 1500 | – | – | – | – | –
30 | O=C(NO)C1(S(=O)(=O)c2ccc(N3CCC4CCCCC4C3)cc2)CCOCC1 (stereo not drawn) [Example 692] | > 10000 | 22.7 | 10 | – | – | – | – | –
31 | C[C@@H]1C[C@H](C)CN(C(=O)C2CCN(c3ccc(S(=O)(=O)C4(C(=O)NO)CCN(C(=O)CCl)CC4)cc3)CC2)C1 [Example 276] | > 10000 | > 10000 | 37.3 | – | – | – | – | –
32 | CC1CC(C)CN(C(=O)C2CCN(c3ccc(S(=O)(=O)C4(C(=O)NO)CCN(C(=O)CN5CCC(C(N)=O)CC5)CC4)cc3)CC2)C1 (stereo not drawn) [Example 300] | > 10000 | > 10000 | 37.3 | – | – | – | – | –
33 | O=C(NO)C1(S(=O)(=O)c2ccc(N3CCC(OCc4ccc(F)cc4F)CC3)cc2)CCOCC1 [Example 558] | > 10000 | 66.4 | 4.5 | – | – | – | – | –
34 | COCCN1CCC(C(=O)NO)(S(=O)(=O)c2ccc(N3CCC(OCc4ccc(F)cc4C(F)(F)F)CC3)cc2)CC1 [Example 447] | > 10000 | 155 | 23.9 | – | – | – | – | –
